Measurements published in PubChem BioAssay (NCI).
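Exposure lasted 48 hours, with cells grown in 96-well plates and compounds tested at five concentrations. Definition used: TGI = concentration required for complete inhibition of growth.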

Experiments:
Test in all cases: growth of human tumour cells (NCI), 48 h
[1] = tested on: 786-0 renal
[2] = tested on: A498 renal
[3] = tested on: A549 NSCLC
[4] = tested on: ACHN renal
[5] = tested on: CCRF-CEM leukemia
[6] = tested on: COLO 205 colon
[7] = tested on: DLD-1 colon
[8] = tested on: DMS 114 small cell lung
[9] = tested on: EKVX NSCLC
[10] = tested on: HCC-2998 colon
[11] = tested on: HCT-116 colon
[12] = tested on: HCT-15 colon
[13] = tested on: HL-60(TB) leukemia
[14] = tested on: HOP-18 NSCLC
[15] = tested on: HOP-62 NSCLC
[16] = tested on: HOP-92 NSCLC
[17] = tested on: HT29 colon
[18] = tested on: IGROV1 ovarian
[19] = tested on: K-562 leukemia
[20] = tested on: KM12 colon
[21] = tested on: KM20L2 colon
[22] = tested on: LOX IMVI melanoma
[23] = tested on: LXFL 529 NSCLC
[24] = tested on: M14 melanoma
[25] = tested on: M19-MEL melanoma
[26] = tested on: MALME-3M melanoma
[27] = tested on: MOLT-4 leukemia
[28] = tested on: NCI-H226 lung
[29] = tested on: NCI-H23 lung
[30] = tested on: NCI-H460 lung
[31] = tested on: NCI-H522 lung
[32] = tested on: OVCAR-3 ovarian
[33] = tested on: OVCAR-5 ovarian
[34] = tested on: OVCAR-8 ovarian
[35] = tested on: RPMI-8226 leukemia
[36] = tested on: RXF 393 renal
[37] = tested on: SF-268 CNS
[38] = tested on: SF-539 CNS
[39] = tested on: SK-MEL-2 melanoma
[40] = tested on: SK-MEL-28 melanoma
[41] = tested on: SK-MEL-5 melanoma
[42] = tested on: SK-OV-3 ovarian
[43] = tested on: SN12C renal
[44] = tested on: SNB-19 CNS
[45] = tested on: SNB-75 CNS
[46] = tested on: SW-620 colon
[47] = tested on: TK-10 renal
[48] = tested on: U251 CNS
[49] = tested on: UACC-257 melanoma
[50] = tested on: UACC-62 melanoma
[51] = tested on: UO-31 renal
[52] = tested on: XF 498 CNS
[53] = tested on: CAKI-1 renal
[54] = tested on: OVCAR-4 ovarian
[55] = tested on: SF-295 CNS
[56] = tested on: SNB-78 CNS
[57] = tested on: SR leukemia
[58] = tested on: BT-549 breast
[59] = tested on: DU-145 prostate
[60] = tested on: HS 578T breast
[61] = tested on: MCF7 breast
[62] = tested on: MDA-MB-231 breast
[63] = tested on: MDA-MB-435
[64] = tested on: MDA-N
[65] = tested on: NCI/ADR-RES ovarian
[66] = tested on: PC-3 prostate
[67] = tested on: T-47D breast
[68] = tested on: DMS 273 small cell lung

O=C1C(c2ccc(Br)cc2)=[N+]([O-])c2ccccc21
TGI [1]: 30.9 µM
TGI [2]: 56.1 µM
TGI [3]: 41.2 µM
TGI [4]: 26.2 µM
TGI [5]: 22.6 µM
TGI [6]: 32.2 µM
TGI [7]: 25 µM
TGI [8]: 12.2 µM
TGI [9]: 29.5 µM
TGI [10]: 29.3 µM
TGI [11]: 27.5 µM
TGI [12]: 23.7 µM
TGI [13]: 12.4 µM
TGI [14]: 27.3 µM
TGI [15]: 68.8 µM
TGI [16]: 20.1 µM
TGI [17]: 43.8 µM
TGI [18]: 33.8 µM
TGI [19]: 33.5 µM
TGI [20]: 30.4 µM
TGI [21]: 38.5 µM
TGI [22]: 21.7 µM
TGI [23]: 18.8 µM
TGI [24]: 29.8 µM
TGI [25]: 22.3 µM
TGI [26]: 32.7 µM
TGI [27]: 26.6 µM
TGI [28]: 35.3 µM
TGI [29]: 30.4 µM
TGI [30]: 34.8 µM
TGI [31]: 11.8 µM
TGI [32]: 28.2 µM
TGI [33]: 35.5 µM
TGI [34]: 25.1 µM
TGI [35]: > 100 µM
TGI [36]: 31.4 µM
TGI [37]: 32.3 µM
TGI [38]: 34.7 µM
TGI [39]: 57.6 µM
TGI [40]: 35.2 µM
TGI [41]: 21.6 µM
TGI [42]: > 100 µM
TGI [43]: 29.6 µM
TGI [44]: 42.3 µM
TGI [45]: 31.4 µM
TGI [46]: 41.5 µM
TGI [47]: 29.7 µM
TGI [48]: 27.9 µM
TGI [49]: 24.7 µM
TGI [50]: 29.7 µM
TGI [51]: 38.7 µM
TGI [52]: 31.3 µM

Cc1cccc(C2SCc3nc4ccccc4n32)c1 (stereo not given)
TGI [1]: 96.2 µM
TGI [3]: > 100 µM
TGI [4]: > 100 µM
TGI [53]: > 100 µM
TGI [5]: > 100 µM
TGI [7]: 75.9 µM
TGI [8]: 28.3 µM
TGI [9]: 68.4 µM
TGI [11]: 56.7 µM
TGI [12]: 54.5 µM
TGI [13]: 33.5 µM
TGI [15]: 66.6 µM
TGI [16]: 47.9 µM
TGI [17]: > 100 µM
TGI [18]: > 100 µM
TGI [19]: > 100 µM
TGI [20]: 79.8 µM
TGI [22]: > 100 µM
TGI [23]: > 100 µM
TGI [24]: > 100 µM
TGI [25]: 96.8 µM
TGI [26]: 49.6 µM
TGI [27]: > 100 µM
TGI [28]: 60.9 µM
TGI [30]: > 100 µM
TGI [31]: 60.7 µM
TGI [32]: 39.1 µM
TGI [54]: > 100 µM
TGI [33]: 65.8 µM
TGI [34]: > 100 µM
TGI [35]: > 100 µM
TGI [36]: 43.9 µM
TGI [37]: > 100 µM
TGI [55]: > 100 µM
TGI [38]: > 100 µM
TGI [39]: 52.6 µM
TGI [40]: 65.7 µM
TGI [41]: 28.3 µM
TGI [42]: 72.9 µM
TGI [43]: 96.8 µM
TGI [45]: 20.7 µM
TGI [56]: 99.4 µM
TGI [57]: 64.2 µM
TGI [46]: > 100 µM
TGI [47]: 56.8 µM
TGI [48]: 47.2 µM
TGI [50]: > 100 µM

NCC(O)CNC(=O)c1ccc(-c2ccc(-c3ccc(C(=O)NCC(O)CN)cc3)o2)cc1 (stereo not given)
TGI [1]: 48.5 µM
TGI [2]: 73.5 µM
TGI [3]: > 100 µM
TGI [4]: > 100 µM
TGI [58]: 88.5 µM
TGI [53]: > 100 µM
TGI [5]: > 100 µM
TGI [6]: > 100 µM
TGI [59]: 50.6 µM
TGI [9]: 70.3 µM
TGI [10]: 96.5 µM
TGI [11]: 52.4 µM
TGI [12]: > 100 µM
TGI [13]: > 100 µM
TGI [15]: 74.4 µM
TGI [16]: 52.1 µM
TGI [60]: 59.7 µM
TGI [17]: > 100 µM
TGI [18]: > 100 µM
TGI [19]: > 100 µM
TGI [20]: > 100 µM
TGI [22]: > 100 µM
TGI [24]: > 100 µM
TGI [26]: 44.2 µM
TGI [61]: > 100 µM
TGI [62]: 54.2 µM
TGI [63]: > 100 µM
TGI [64]: > 100 µM
TGI [27]: > 100 µM
TGI [28]: 55.4 µM
TGI [29]: > 100 µM
TGI [30]: > 100 µM
TGI [31]: > 100 µM
TGI [65]: > 100 µM
TGI [32]: 46.5 µM
TGI [54]: > 100 µM
TGI [33]: > 100 µM
TGI [34]: > 100 µM
TGI [66]: 48.3 µM
TGI [35]: > 100 µM
TGI [36]: 40.1 µM
TGI [37]: 69.3 µM
TGI [55]: 56.6 µM
TGI [38]: 41.6 µM
TGI [39]: > 100 µM
TGI [40]: > 100 µM
TGI [41]: > 100 µM
TGI [42]: 58 µM
TGI [43]: 68.9 µM
TGI [44]: 46.2 µM
TGI [45]: 49.5 µM
TGI [57]: > 100 µM
TGI [46]: > 100 µM
TGI [67]: 92.6 µM
TGI [47]: 38.9 µM
TGI [48]: 42.6 µM
TGI [49]: > 100 µM
TGI [50]: > 100 µM
TGI [51]: > 100 µM

NC(=O)c1ccccc1[N+](=O)[O-]
TGI [1]: > 100 µM
TGI [2]: > 100 µM
TGI [3]: > 100 µM
TGI [4]: > 100 µM
TGI [53]: > 100 µM
TGI [6]: > 100 µM
TGI [8]: > 100 µM
TGI [68]: > 100 µM
TGI [9]: > 100 µM
TGI [10]: > 100 µM
TGI [11]: > 100 µM
TGI [12]: > 100 µM
TGI [14]: > 100 µM
TGI [15]: > 100 µM
TGI [16]: > 100 µM
TGI [17]: > 100 µM
TGI [18]: > 100 µM
TGI [19]: > 100 µM
TGI [21]: > 100 µM
TGI [25]: > 100 µM
TGI [26]: > 100 µM
TGI [27]: > 100 µM
TGI [32]: > 100 µM
TGI [34]: > 100 µM
TGI [35]: > 100 µM
TGI [37]: > 100 µM
TGI [38]: > 100 µM
TGI [40]: > 100 µM
TGI [41]: > 100 µM
TGI [43]: > 100 µM
TGI [44]: > 100 µM
TGI [45]: > 100 µM
TGI [56]: > 100 µM
TGI [46]: > 100 µM
TGI [48]: > 100 µM
TGI [50]: > 100 µM
TGI [52]: > 100 µM
